The record followed here is article PMC4393083, “Antiviral Activity and Possible Mechanism of Action of Constituents Identified in Paeonia lactiflora Root toward Human Rhinoviruses” (PLoS ONE, 2015).

Like-named read-outs stand apart in the source and are kept apart here.

Data set [1] relates to HRV-4. The data set can be described thus: Cytopathic effect inhibition assay (MTT), HRV-4 in HeLa cells. The data set is classed as cell-based, human rhinovirus. The following applies: read-out: IC50 (95% CL) HRV-4. As for the experimental part: Extraction procedures of air-dried root of P. lactiflora were performed as described previously by Ngan et al.. For isolation of active principles, viral CPE inhibition assay toward HRV-4 in HeLa cell was used. […]. Column fractions were monitored by TLC on silica gel plates developed with chloroform and methanol (7:3 by volume) mobile phase. Fractions with similar R f values on the TLC plates were pooled. Active fractions 4 to 5 (EI, 2.44 g) and 7 (EII, 0.569 g) were obtained. The active fraction EI was rechromatographed on a silica gel column by elution with chloroform and methanol (70:30 by volume) to give nine fractions (each about 450 mL). A preparative HPLC was used for separation of constituents from the active fractions 3 to 5 (0.176 g). The column was a 4.6 mm i.d. × 150 mm Eclipse XDB-C18 (Agilent, Santa Clara, CA) using a mobile phase of methanol and water (3:7 by volume) at a flow rate of 0.5 mL/min. Chromatographic separations were monitored using a UV detector at 260 nm. […]. The three antiviral principles were characterized as paeonol (PA) (1), gallic acid (GA) (2), and 1,2,3,4,6-penta-O-galloyl-β-D-glucopyranose (PGG) (3) (Fig 1) by spectroscopic analyses, including MS and NMR. PA (1): compound 1 was isolated as an antibacterial principle from P. lactiflora root in our previous work, and the spectral data of compound 1 was largely identical to the published data. GA (2) was identified on the basis of the following evidence: white powder. UV (MeOH): λmax nm = 260. FT-IR: v max cm^–1 = 3491–3063 (OH stretch), 1608 (aromatic C = C). […] The interpretations of proton and carbon signals of compound 2 were largely consistent with those of Sakar et al.. PGG (3): compound 3 was isolated as an antibacterial principle from P. lactiflora root in our previous work, and the spectral data of compound 3 was largely identical to the published data.
(§1) Monolayers of HeLa and MRC5 cells were seeded onto a 96-well culture plate as stated previously. Subsequently, 90 μL media containing several different concentrations (1–1000 μg/mL) of each test material in DMSO was put into the wells, and then 10 μL of 10×TCID50 of the virus stock was added to produce an appropriate CPE within 2 days after infection. Ribavirin served as a reference control and was similarly prepared. Negative controls consisted of the DMSO solution. Viral inhibition rate (VIR) (%) was calculated according to the formula [21], VIR = (A tV—A cV)/(A cd—A cV) × 100, where A tV is the optical density measured with a given concentration of the test compound in HRV infected cells; A cV is the optical density measured for the control untreated HRV infected cells; A cd is the optical density measured for the control untreated HRV uninfected cells.
(§2) The CC50 and IC50 values were determined using GraphPad Prism 5 software program (GraphPad Software, La Jolla, CA). […] The selectivity index (SI) was determined as the ratio of CC50 to IC50 [23]. All data represent the mean ± SD of duplicate or triplicate samples of three independent experiments. Statistical analyses were carried out using SAS 9.13 program (SAS Institute, Cary, NC). Data from two groups were analyzed by a Student’s t-test, and multiple groups were analyzed by a one-way analysis of variance and Bonferroni multiple comparison post-test.

Data set [2] is described as follows: Cytotoxicity MTT assay in MRC5 cells. The data set is classed as cell-based, human. The following applies: human, tetrazolium assay, read-out: CC50 (95% CL). Here is the method:
The cytotoxicity of the test materials to two human cell lines was evaluated using an MTT assay described previously by Morgan. In brief, a 10× stock solution of MTT was prepared by adding 5 mg/mL MTT in phosphate-buffered saline (PBS) (pH 7.4). The stock solution was sterile-filtered and stored at −20°C. HeLa and MRC5 cells were seeded onto 96-well culture plates at a density of 3 × 10^4 cells per well for 1 day. The culture medium was removed and the plates with monolayer cells were replaced with media containing several different concentrations (1–1000 μg/mL) of the test materials in dimethylsulfoxide (DMSO). After incubation at 37°C and 5% CO2 for 2 days, the culture plates were then washed once with 200 μL PBS. A volume of 100 μL medium containing 0.05% MTT were added to each well and then incubated for 4 h at the same condition. After then, MTT solution was removed and 150 μL DMSO was added to each well. Finally, the plate was shaken for 15 min to dissolve the purple formazan crystals that had formed. Absorbance was read at 560 nm by using a VersaMax microplate reader (Molecular Devices, Sunnyvale, CA) with a reference absorbance at 670 nm.
The CC50 and IC50 values were determined using GraphPad Prism 5 software program (GraphPad Software, La Jolla, CA). […] The selectivity index (SI) was determined as the ratio of CC50 to IC50 [23]. All data represent the mean ± SD of duplicate or triplicate samples of three independent experiments. […] Data from two groups were analyzed by a Student’s t-test, and multiple groups were analyzed by a one-way analysis of variance and Bonferroni multiple comparison post-test.
(Tetrazolium assays rely on reduction of a dye to a coloured formazan, in cell work by metabolically active cells.)

Data set [3] deals with HRV-2. The data set can be described thus: Cytopathic effect inhibition assay (MTT), HRV-2 in MRC5 cells. The format is cell-based, human rhinovirus. The conditions noted are these: read-out: IC50 (95% CL) HRV-2. As for the experimental part:
as §1, §2

The test system of data set [4] is HRV-2. The data set can be described thus: Cytopathic effect inhibition assay (MTT), HRV-2 in HeLa cells. The data set is classed as cell-based, human rhinovirus. The conditions noted are these: read-out: IC50 (95% CL) HRV-2. Here is the method:
as §1, §2
(Damage to the host cells serves as the signal in cytopathic effect assays.)

Data set [5] deals with HRV-4. Briefly: Virus titration assay, HRV-4 in MRC5 cultures. The data set is classed as cell-based, human rhinovirus. The following applies: PGG 20 μg/mL, PA 100 μg/mL, ribavirin 100 μg/mL; for Log (TCID50/mL) ± SE HRV-4: infected MRC5 cultures, 48 h, infected untreated control 3.81; for Reduction of virus replication (Log (TCID50/mL)) ± SE HRV-4: vs infected untreated control. Here is the method:
Virus titers in infected MRC-5 cultures treated with PA and PGG were measured as TCID50 using MTT-based titration method. In brief, MRC5 cells were seeded at 10^5 cells/mL in a 6-well plate. After 24 h, the cell monolayers were treated with 100 μg/mL PA or 20 μg/mL PGG and infected with HRV-2 or HRV-4 in a concentration of 10×TCID50/mL. Uninfected untreated and infected untreated cultures were included in the assay. The 100 μg/mL of ribavirin was used as a reference control. After 48 h incubation at 37°C, the cultures were frozen and thawed at −80°C/25°C. Cell debris was removed by centrifugation (2000 rpm) and the virus supernatants were collected. Virus titration was then performed in HeLa cell cultures. Initially, a 1:10 dilution of each supernatant was prepared followed by 10 serial 2-fold-dilutions, and added to HeLa cell monolayers. After 48 h, cell mortality was measured using an MTT assay stated previously. Graphs were built by plotting dead cell percentages toward virus dilution factors of each virus supernatant. The 50% infectivity point was calculated through a linear regression analysis of the curve.

Where [6] appears, read: Human rhinovirus sp., HRV4, HeLa.
Where [7] appears, read: Rhinovirus A, HRV2, MRC5, HRV-2 in MRC5 cells.

Broadly, the IC50 is the concentration that inhibits the measured activity by half. The term CC50 denotes the concentration at which the toxic effect on the cells reaches its halfway point. For `COc1ccc(C(C)=O)c(O)c1` [PA, paeonol], the IC50 was 514 µM in data set [1] (setting [6]); 514 µM in data set [1]; 503 µM in data set [3] (HRV-2 in MRC5 cells); 503 µM in data set [3] (setting [7]); 608 µM in data set [4] (Rhinovirus A, HRV2, HeLa); 608 µM in data set [4]. Moreover, the CC50 at 2 days in data set [2] amounted to 3140 µM. The “reduction of the HRV-4 titer” value in data set [5] is 27.6%. In addition, the “Log (TCID50/mL) ± SE HRV-4” value in data set [5] was 2.76 ± 0.024 b Log (TCID50/mL). In addition, the “Reduction of virus replication (Log (TCID50/mL)) ± SE HRV-4” value (“Reduction … (Log (TCID50/mL)) ± SE HRV-4” for short) in data set [5] was 1.05 ± 0.023 Log (TCID50/mL).
In the case of `NC(=O)c1ncn([C@@H]2O[C@H](CO)[C@@H](O)[C@H]2O)n1` [Ribavirin, reference compound], the IC50 in data set [1] (setting [6]) turned out to be 324 µM; in data set [1] it was 324 µM; in data set [3] (HRV-2 in MRC5 cells), 240 µM; in data set [3] (setting [7]), 240 µM; in data set [4] (Rhinovirus A, HRV2, HeLa), 304 µM; in data set [4], 304 µM. Besides, in data set [2], the cytotoxic concentration (CC50) at 2 days was determined as 2230 µM. Moreover, the “reduction of the HRV-4 titer” value in data set [5] was 36.0%. Also, the “Log (TCID50/mL) ± SE HRV-4” value in data set [5] was 2.44 ± 0.024 a Log (TCID50/mL). The “Reduction … (Log (TCID50/mL)) ± SE HRV-4” value in data set [5] is on record as 1.37 ± 0.023 Log (TCID50/mL).
For the compound `O=C(OC[C@H]1O[C@@H](OC(=O)c2cc(O)c(O)c(O)c2)[C@H](OC(=O)c2cc(O)c(O)c(O)c2)[C@@H](OC(=O)c2cc(O)c(O)c(O)c2)[C@@H]1OC(=O)c1cc(O)c(O)c(O)c1)c1cc(O)c(O)c(O)c1` [PGG, 1,2,3,4,6-penta-O-galloyl-β-D-glucopyranose], the IC50 in data set [1] (setting [6]) came to 14.4 µM; in data set [1] it was 14.4 µM; in data set [3] (HRV-2 in MRC5 cells) it was 17.9 µM; in data set [3] (setting [7]), 17.9 µM; in data set [4] (Rhinovirus A, HRV2, HeLa) it was 11.6 µM; in data set [4] it was 11.6 µM. Also, the CC50 at 2 days in data set [2] was 108 µM. Also, the “reduction of the HRV-4 titer” value in data set [5] is 20.7%. For the same compound, the “Log (TCID50/mL) ± SE HRV-4” value in data set [5] is 3.04 ± 0.038 c Log (TCID50/mL). Besides, the “Reduction … (Log (TCID50/mL)) ± SE HRV-4” value in data set [5] was 0.79 ± 0.038 Log (TCID50/mL).
